Drawing on US20210046010A1, “TABLETS CONTAINING ARGININE AT HIGH CONCENTRATION” (KYOWA HAKKO BIO CO., LTD., priority 2015, published 2021), this text covers moisture content for 3 compounds.

Data set [1] can be described thus: Moisture content of powder by Karl Fischer's method. In kind it is physicochemical. As to conditions: Japan Food Research Laboratories. The protocol: (§1) 600 g of L-arginine was added to 5 L of water, and the mixture was mixed, and spray dried by a spray dryer [L-8i type spray dryer (manufactured by OHKAWARA KAKOHKI CO., LTD.)] set to the conditions of atomizer rotation number=35,000 rpm, inlet temperature=180° C. and outlet temperature=70° C. to give a powder. The moisture content of the aforementioned powder was measured by a heating and drying method moisture analyzer [heating and drying method moisture analyzer MX-50 (manufactured by A&D Company, Limited)] to find 1.96 mass % The moisture content was 2.3 mass % when measured by the Karl Fischer's method at the General Incorporated Foundations Japan Food Research Laboratories. Hereinafter this powder is indicated to as “SD arginine-A”.

A short description of data set [2]: Moisture content of powder by heating and drying method moisture analyzer. In kind it is physicochemical. As to conditions: heating and drying method moisture analyzer MX-50. The protocol:
as §1

In the case of `N=C(N)NCCC[C@H](N)C(=O)O` [SD arginine-A, L-arginine], the moisture content in data set [1] was determined as 2.3 mass %; in data set [2], 1.96 mass %. In data set [2], `N=C(N)NCCC[C@H](N)C(=O)O` [SD arginine-B, L-arginine] displayed a moisture content of 1.81 mass %. Take `N=C(N)NCCC[C@H](N)C(=O)O` [SD arginine-C, L-arginine]: the moisture content in data set [1] turned out to be 3.91 mass %; in data set [2], 3.80 mass %.
